In ChEMBL document CHEMBL5370560, “Isolation of Anti-SARS-CoV-2 Natural Products Extracted from Mentha canadensis and the Semi-synthesis of Antiviral Derivatives” (J Nat Prod, 2023):
In brackets after ≈: the same amount, converted by molar mass.

System: SARS-CoV-2
Assay: Antiviral activity against SARS-CoV-2 hCoV-19/Egypt/NRC-03/2020 infected in Vero E6 cells assessed as reduction in plaque formation pretreated with cells for 1 hr followed by viral infection for 1 hr with subsequent replacement of compound containing medium and measured after 3 to 4 days by crystal violet staining based analysis
Format: functional, organism-based
Conditions: Severe acute respiratory syndrome coronavirus 2, hCoV-19/Egypt/NRC-03/2020, Vero C1008

Compound: O=C(/C=C/c1ccc(O)c(O)c1)O[C@H](Cc1ccc(O)c(O)c1)C(=O)O [ROSMARINIC ACID]
- IC50: 0.0255 µg/mL (≈ 0.0707 µM)
